Each compound was assayed against TLR2 (Homo sapiens, UniProt O60603) (assay: TLR2 agonist screening assay, HEK-Blue TLR2 reporter cell line (NF-kB-driven SEAP, absorbance at 600 nm)). Conditions: HEK-Blue TLR2 reporter cells, agonist mode; average of all runs (Table 4).
Chain of TLR2 (O60603 21-784): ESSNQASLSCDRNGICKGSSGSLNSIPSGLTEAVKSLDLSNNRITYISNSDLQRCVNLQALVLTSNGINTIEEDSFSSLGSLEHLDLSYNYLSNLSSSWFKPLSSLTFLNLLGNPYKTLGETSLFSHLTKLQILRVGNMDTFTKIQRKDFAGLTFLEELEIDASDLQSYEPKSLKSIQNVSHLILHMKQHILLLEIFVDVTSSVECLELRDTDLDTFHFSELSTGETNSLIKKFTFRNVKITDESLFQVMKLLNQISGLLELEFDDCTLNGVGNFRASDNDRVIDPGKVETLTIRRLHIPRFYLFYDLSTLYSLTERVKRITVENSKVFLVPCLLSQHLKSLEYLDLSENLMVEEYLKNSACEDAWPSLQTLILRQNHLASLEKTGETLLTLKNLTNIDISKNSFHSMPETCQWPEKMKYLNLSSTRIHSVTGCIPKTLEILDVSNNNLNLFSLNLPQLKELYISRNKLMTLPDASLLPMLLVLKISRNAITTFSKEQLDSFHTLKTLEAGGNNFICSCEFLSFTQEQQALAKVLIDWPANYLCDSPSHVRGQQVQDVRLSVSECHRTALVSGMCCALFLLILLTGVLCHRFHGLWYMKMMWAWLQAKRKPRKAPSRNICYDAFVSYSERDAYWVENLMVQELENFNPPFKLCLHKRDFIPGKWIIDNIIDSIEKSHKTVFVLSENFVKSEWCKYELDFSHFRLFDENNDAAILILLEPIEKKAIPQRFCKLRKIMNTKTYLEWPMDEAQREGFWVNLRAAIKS
Type: cell-based
Parameters: host or cells: HEK-293 (HEK-Blue TLR2 reporter cell line)
Method in brief: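 TLR2 engagement is scored through NF-kB-induced secreted alkaline phosphatase in HEK-293 cells, detected by substrate colour change at 600 nm after overnight compound treatment at 1% final DMSO. Potency is expressed as EC50.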
With `CCCCCCNC(=O)[C@@H](CCNC(=O)c1ccc(C(=O)N2C[C@@H](C(=O)N[C@H]3C[C@@H]3c3ccccc3)[C@H](C(=O)N[C@H]3C[C@@H]3c3ccccc3)C2)cc1)NC(=O)CCCCCC` [Compound 120, (3S,4S)-1-(4-(((R)-3-heptanamido-4-(hexylamino)-4-oxobutyl)carbamoyl)benzoyl)-N3,N4-bis((1S,2R)-2-phenylcyclopropyl)pyrrolidine-3,4-dicarboxamide] the EC50 was greater than 1000 nM.
`CCCCCCCC(=O)N1CCN(Cc2ccc(C(=O)N3C[C@@H](C(=O)N[C@H]4C[C@@H]4c4ccccc4)[C@H](C(=O)N[C@H]4C[C@@H]4c4ccccc4)C3)cc2)C[C@@H]1C(=O)NCCCCCC` [Compound 121, (3S,4S)-1-(4-(((R)-3-(hexylcarbamoyl)-4-octanoylpiperazin-1-yl)methyl)benzoyl)-N3,N4-bis((1S,2R)-2-phenylcyclopropyl)pyrrolidine-3,4-dicarboxamide] was tested, and the EC50 was 351 to 1000 nM.
`CCCCCCCC(=O)N1CCN(Cc2ccc(C(=O)N3C[C@@H](C(=O)N[C@H]4C[C@@H]4c4ccccc4)[C@H](C(=O)N[C@H]4C[C@@H]4c4ccccc4)C3)cc2)C[C@H]1C(=O)NCCCCCC` [Compound 122, (3S,4S)-1-(4-(((S)-3-(hexylcarbamoyl)-4-octanoylpiperazin-1-yl)methyl)benzoyl)-N3,N4-bis((1S,2R)-2-phenylcyclopropyl) pyrrolidine-3,4-dicarboxamide] gave an EC50 greater than 1000 nM.
Compound `CCCCCCCCCCCCCCNC(=O)[C@H]1CCCN(C(=O)c2ccc(C(=O)N3C[C@@H](C(=O)N[C@H]4C[C@@H]4c4ccccc4)[C@H](C(=O)N[C@H]4C[C@@H]4c4ccccc4)C3)cc2)C1` [Compound 123, (3S,4S)—N3,N4-bis((1S,2R)-2-phenylcyclopropyl)-1-(4-((S)-3-(tetradecylcarbamoyl)piperidine-1-carbonyl)benzoyl)pyrrolidine-3,4-dicarboxamide] has an EC50 of 0.1 to 50 nM.
With `CCCCCCCCCCCCCCC(=O)N[C@H]1CCCN(C(=O)c2ccc(C(=O)N3C[C@@H](C(=O)N[C@H]4C[C@@H]4c4ccccc4)[C@H](C(=O)N[C@H]4C[C@@H]4c4ccccc4)C3)cc2)C1` [Compound 124, (3S,4S)-1-(4-((S)-3-pentadecanamidopiperidine-1-carbonyl)benzoyl)-N3,N4-bis((1S,2R)-2-phenylcyclopropyl)pyrrolidine-3,4-dicarboxamide] the EC50 was greater than 1000 nM.
In the case of `CCCCCCCCCCCCCCC(=O)N1CCC[C@H](NC(=O)c2ccc(C(=O)N3C[C@@H](C(=O)N[C@H]4C[C@@H]4c4ccccc4)[C@H](C(=O)N[C@H]4C[C@@H]4c4ccccc4)C3)cc2)C1` [Compound 125, (3S,4S)-1-(4-(((S)-1-pentadecanoylpiperidin-3-yl)carbamoyl)benzoyl)-N3,N4-bis((1S,2R)-2-phenylcyclopropyl)pyrrolidine-3,4-dicarboxamide], the EC50 is reported as greater than 1000 nM.
`CCCCCCCCCCCCCCC(=O)N[C@@H]1CCN(Cc2ccc(C(=O)N3C[C@@H](C(=O)N[C@H]4C[C@@H]4c4ccccc4)[C@H](C(=O)N[C@H]4C[C@@H]4c4ccccc4)C3)cc2)C1=O` [Compound 126, (3S,4S)-1-(4-(((R)-2-oxo-3-pentadecanamidopyrrolidin-1-yl)methyl)benzoyl)-N3,N4-bis((1S,2R)-2-phenylcyclopropyl)pyrrolidine-3,4-dicarboxamide] showed an EC50 greater than 1000 nM.
`CCCCCCCCCCCCCCNC(=O)C[C@H]1CCCN1C(=O)c1ccc(C(=O)N2C[C@@H](C(=O)N[C@H]3C[C@@H]3c3ccccc3)[C@H](C(=O)N[C@H]3C[C@@H]3c3ccccc3)C2)cc1` [Compound 127, (3S,4S)-1-(4-((R)-2-(2-oxo-2-(tetradecylamino)ethyl)pyrrolidine-1-carbonyl)benzoyl)-N3,N4-bis((1S,2R)-2-phenylcyclopropyl) pyrrolidine-3,4-dicarboxamide] showed an EC50 of 51 to 350 nM.
`CCCCCCC(=O)N[C@@H](CNC(=O)c1ccc(C(=O)N2C[C@@H](C(=O)N[C@H]3C[C@@H]3c3ccccc3)[C@H](C(=O)N[C@H]3C[C@@H]3c3ccccc3)C2)cc1)C(=O)NCc1ccc(F)cc1` [Compound 128, (3S,4S)-1-(4-(((S)-3-((4-fluorobenzyl)amino)-2-heptanamido-3-oxopropyl)carbamoyl)benzoyl)-N3,N4-bis((1S,2R)-2-phenylcyclopropyl)pyrrolidine-3,4-dicarboxamide] was tested, and the EC50 was greater than 1000 nM.
`CCCCCCC(=O)N[C@@H](CNC(=O)c1ccc(C(=O)N2C[C@@H](C(=O)N[C@H]3C[C@@H]3c3ccccc3)[C@H](C(=O)N[C@H]3C[C@@H]3c3ccccc3)C2)cc1)C(=O)NCCc1ccc(F)cc1` [Compound 129, (3S,4S)-1-(4-(((S)-3-((4-fluorophenethyl)amino)-2-heptanamido-3-oxopropyl)carbamoyl)benzoyl)-N3,N4-bis((1S,2R)-2-phenylcyclopropyl)pyrrolidine-3,4-dicarboxamide] gave an EC50 of 51 to 350 nM.
`CCCCCCNC(=O)[C@H](CNC(=O)c1ccc(C(=O)N2C[C@@H](C(=O)N[C@H]3C[C@@H]3c3ccccc3)[C@H](C(=O)N[C@H]3C[C@@H]3c3ccccc3)C2)cc1)NC(=O)CCCC` [Compound 130, (3S,4S)-1-(4-(((S)-3-(hexylamino)-3-oxo-2-pentanamidopropyl)carbamoyl)benzoyl)-N3,N4-bis((1S,2R)-2-phenylcyclopropyl)pyrrolidine-3,4-dicarboxamide] showed an EC50 of 351 to 1000 nM.
`CCCCCCC(=O)N[C@@H](CNC(=O)c1ccc(C(=O)N2C[C@@H](C(=O)N[C@H]3C[C@@H]3c3ccccc3)[C@H](C(=O)N[C@H]3C[C@@H]3c3ccccc3)C2)cc1)C(=O)NCCCC` [Compound 131, (3S,4S)-1-(4-(((S)-3-(butylamino)-2-heptanamido-3-oxopropyl)carbamoyl)benzoyl)-N3,N4-bis((1S,2R)-2-phenylcyclopropyl)pyrrolidine-3,4-dicarboxamide] was tested, and the EC50 was 351 to 1000 nM.
`CCCCCCCCCCCCCCNC(=O)[C@H]1CN(C(c2ccc(C(=O)N3C[C@@H](C(=O)N[C@H]4C[C@@H]4c4ccccc4)[C@H](C(=O)N[C@H]4C[C@@H]4c4ccccc4)C3)cc2)C(F)(F)F)CCN1C` (stereo partly drawn) [Compound 132, (3S,4S)—N3,N4-bis((1S,2R)-2-phenylcyclopropyl)-1-(4-(2,2,2-trifluoro-1-((R)-4-methyl-3-(tetradecylcarbamoyl)piperazin-1-yl)ethyl)benzoyl)pyrrolidine-3,4-dicarboxamide] was tested, and the EC50 was 51 to 350 nM.
`CCCCCCCCCCCCCCC(=O)N[C@H]1CCN(Cc2ccc(C(=O)N3C[C@@H](C(=O)N[C@H]4C[C@@H]4c4ccccc4)[C@H](C(=O)N[C@H]4C[C@@H]4c4ccccc4)C3)cc2)C1=O` [Compound 133, (3S,4S)-1-(4-(((S)-2-oxo-3-pentadecanamidopyrrolidin-1-yl)methyl)benzoyl)-N3,N4-bis((1S,2R)-2-phenylcyclopropyl)pyrrolidine-3,4-dicarboxamide] showed an EC50 greater than 1000 nM.
`CCCCCCCCCCCCCCNC(=O)C[C@@H]1CCCN1C(=O)c1ccc(C(=O)N2C[C@@H](C(=O)N[C@H]3C[C@@H]3c3ccccc3)[C@H](C(=O)N[C@H]3C[C@@H]3c3ccccc3)C2)cc1` [Compound 135, (3S,4S)-1-(4-((S)-2-(2-oxo-2-(tetradecylamino)ethyl)pyrrolidine-1-carbonyl)benzoyl)-N3,N4-bis((1S,2R)-2-phenylcyclopropyl) pyrrolidine-3,4-dicarboxamide] gave an EC50 greater than 1000 nM.
`CCCCCCCCCCCCCCCN1CCCC(NC(=O)c2ccc(C(=O)N3C[C@@H](C(=O)N[C@H]4C[C@@H]4c4ccccc4)[C@H](C(=O)N[C@H]4C[C@@H]4c4ccccc4)C3)cc2)C1=O` (stereo partly drawn) [Compound 136] showed an EC50 of 0.1 to 50 nM.
`CCCCCCNC(=O)[C@H](CNC(=O)c1ccc(C(=O)N2C[C@@H](C(=O)N[C@H]3C[C@@H]3c3ccccc3)[C@H](C(=O)N[C@H]3C[C@@H]3c3ccccc3)C2)cc1)NC(=O)NCCCCC` [Compound 137, (3S,4S)-1-(4-(((S)-3-(hexylamino)-3-oxo-2-(3-pentylureido)propyl)carbamoyl)benzoyl)-N3,N4-bis((1S,2R)-2-phenylcyclopropyl)pyrrolidine-3,4-dicarboxamide] was tested, and the EC50 was 51 to 350 nM.
Compound `CCCCCCNC(=O)[C@H](CNC(=O)c1ccc(C(=O)N2C[C@@H](C(=O)N[C@H]3C[C@@H]3c3ccccc3)[C@H](C(=O)N[C@H]3C[C@@H]3c3ccccc3)C2)cc1)NC(=O)CCc1ccc(F)cc1` [Compound 139, (3S,4S)-1-(4-(((S)-2-(3-(4-fluorophenyl)propanamido)-3-(hexylamino)-3-oxopropyl)carbamoyl)benzoyl)-N3,N4-bis ((1S,2R)-2-phenylcyclopropyl) pyrrolidine-3,4-dicarboxamide] has an EC50 of 0.1 to 50 nM.
Compound `CCCCCCCCNC(=O)[C@H](CNC(=O)c1ccc(C(=O)N2C[C@@H](C(=O)N[C@H]3C[C@@H]3c3ccccc3)[C@H](C(=O)N[C@H]3C[C@@H]3c3ccccc3)C2)cc1)NC(=O)CCCCCC` [Compound 141, (3S,4S)-1-(4-(((S)-2-heptanamido-3-(octylamino)-3-oxopropyl)carbamoyl)benzoyl)-N3,N4-bis((1S,2R)-2-phenylcyclopropyl)pyrrolidine-3,4-dicarboxamide] has an EC50 of 0.1 to 50 nM.
In the case of `CCCCCCCCCCCCCCNC(=O)C1CCN(Cc2ccc(C(=O)N3C[C@@H](C(=O)N[C@H]4C[C@@H]4c4ccccc4)[C@H](C(=O)N[C@H]4C[C@@H]4c4ccccc4)C3)cc2)C1=O` (stereo partly drawn) [Compound 142, (3S,4S)-1-(4-((2-oxo-3-(tetradecylcarbamoyl)pyrrolidin-1-yl)methyl)benzoyl)-N3,N4-bis((1S,2R)-2-phenylcyclopropyl)pyrrolidine-3,4-dicarboxamide], the EC50 is reported as greater than 1000 nM.
In the case of `CCCCCCC(=O)N[C@@H](CNC(=O)c1ccc(C(=O)N2C[C@@H](C(=O)N[C@H]3C[C@@H]3c3ccccc3)[C@H](C(=O)N[C@H]3C[C@@H]3c3ccccc3)C2)cc1)C(=O)N[C@H]1C[C@@H]1c1ccccc1` [Compound 143, (3S,4S)-1-(4-(((S)-2-heptanamido-3-oxo-3-(((1S,2R)-2-phenylcyclopropyl)amino)propyl)carbamoyl)benzoyl)-N3,N4-bis((1S,2R)-2-phenylcyclopropyl)pyrrolidine-3,4-dicarboxamide], the EC50 is reported as 51 to 350 nM.

— patent US11951094B2, “TLR2 modulator compounds, pharmaceutical compositions and uses thereof” (Axial Therapeutics, Inc., priority 2020, dated 2024)
